How the values were obtained:
[1] = target: AMPA ((RS)-α-amino-3-hydroxy-5-methyl-4-isoxazolepropionic acid) binding site; assay: AMPA binding assay (T. Honoré et al., Neuroscience Letters 54, 27-32 (1985))
Experimental: In the same assay 1,2,3,6,7,8-hexahydro-3-(hydroxyimino)-N,N,7-trimethyl-2-oxobenzo[2,1-b:3,4-c']dipyrrole-5-sulfonamide has an IC50 of 0.3 µM.

[2] = system: AMPA-induced clonic seizures; assay: AMPA-induced clonic seizures (AMPA seizure test); assay type: in vivo, female NMRI mice; details: Mus musculus, iv; test compound i.v. 5 min before 0.3 µg icv AMPA; dose inhibiting 50% of the mice from having clonic seizures
Experimental: AMPA given icv (intracerebroventricular) (15 µg/kg) NMRI to mice induces clonic seizures which should be inhibited by non-NMDA receptor excitatory amino acid antagonists.
Test compound was given i.v. 5 min (or p.o. 30 min) before a 0.3 µg icv administration of AMPA to 10 female NMRI mice (weighing 24-26 g) per dose. The number of mice experiencing clonic seizures within the next 5 min was noted. An ED50 value was calculated as the dose inhibiting 50% of the mice from having clonic seizures.

SMILES	IC50 [1] [µM]	ED50 [2] [mg/kg]
CN1Cc2c(S(=O)(=O)N(C)C)cc3c(c2C1)NC(=O)C3=NO [1,2,3,6,7,8-hexahydro-3-(hydroxyimino)-N,N,7-trimethyl-2-oxobenzo[2,1-b:3,4-c']dipyrrole-5-sulfonamide]	0.3	
O=C1CCCc2c3c(cc([N+](=O)[O-])c2N1)C(=NO)C(=O)N3 [5-nitro-1H,6H-2,3,7,8,9,10-hexahydro-2,3,7-trioxo-azepino[2,3-g]indole-3-oxime]	4	
CN1Cc2ccc3c(c2C1)NC(=O)C3=NO [7-methyl-1,6,7,8-tetrahydrobenzo[2,1-b:3,4-c']dipyrrole-2,3-dione-3-oxime]	1	8
